Test results from publication PMC5356695, “A phase 1 study of oral ridaforolimus in pediatric patients with advanced solid tumors” (Oncotarget, 2016).
Where two headings read alike, the source gives them in different places.

System: pediatric patients with advanced solid tumors
Settings: for Leukopenia (treatment-related AE): laboratory values only
Method: This phase 1, multicenter, open-label study was conducted at a total of 8 study sites (3 study sites in the United States and 5 Innovative Therapies for Children with Cancer [ITCC] Consortium centers [2 in the United Kingdom and 3 in France]) between January 31, 2012, and the data cutoff, January 14, 2014 (ClinicalTrials.gov identifier NCT01431534; European Clinical Trials Database [EudraCT] number 2011-000729-55). An enteric-coated tablet formulation of ridaforolimus was orally administered for 5 consecutive days and not administered for 2 consecutive days per week in 28-day cycles until progression, unacceptable toxicity, or consent withdrawal. […] Dose escalation was conducted by using a modified toxicity probability intervals method that targeted a 30% DLT rate and started at 22 mg/m^2 (the equivalent of the adult RP2D [27], a 40-mg dose in adults with a BSA of 1.8 m^2). […] Dosing was adjusted based on BSA and rounded to the nearest 10-mg tablet. Patients were to be treated at sequentially rising dose levels until a preliminary MTD was identified.
Toxicity was graded according to the National Cancer Institute Common Terminology Criteria for Adverse Events, version 4.0 [42]. Safety data were reported for all patients who received at least 1 dose of the study drug. […] Once the RP2D of ridaforolimus was defined, an expansion cohort to be treated at the RP2D was planned to obtain additional safety, tolerability, and pharmacokinetic data.

CO[C@H]1C[C@@H]2CC[C@@H](C)[C@@](O)(O2)C(=O)C(=O)N2CCCC[C@H]2C(=O)O[C@H]([C@H](C)C[C@@H]2CC[C@@H](OP(C)(C)=O)[C@H](OC)C2)CC(=O)[C@H](C)/C=C(\C)[C@@H](O)[C@@H](OC)C(=O)[C@H](C)C[C@H](C)/C=C/C=C/C=C/1C [ridaforolimus]
2 (15) n (%): Vomiting (treatment-related AE) (33 mg/m^2 n = 13, any grade)
3 (100) n (%): Stomatitis (treatment-related AE) (28 mg/m^2 n = 3, any grade)
3 (23) n (%): Increased ALT (treatment-related AE) (33 mg/m^2 n = 13, grades 3–4)
1 (25) n (%): Vomiting (treatment-related AE) (22 mg/m^2 n = 4, any grade) | Leukopenia (treatment-related AE) (22 mg/m^2 n = 4, any grade) | Hypophosphatemia (treatment-related AE) (22 mg/m^2 n = 4, grades 3–4) | Increased ALT (treatment-related AE) (22 mg/m^2 n = 4, grades 3–4) | Oral herpes (treatment-related AE) (22 mg/m^2 n = 4, grades 3–4)
0 n (%): Anemia (treatment-related AE) (22 mg/m^2 n = 4, grades 3–4) | Decreased appetite (treatment-related AE) (22 mg/m^2 n = 4, grades 3–4) | Decreased weight (treatment-related AE) (22 mg/m^2 n = 4, grades 3–4) | Diarrhea (treatment-related AE) (22 mg/m^2 n = 4, grades 3–4) | Dry mouth (treatment-related AE) (22 mg/m^2 n = 4, grades 3–4) | Dysgeusia (treatment-related AE) (22 mg/m^2 n = 4, grades 3–4) | Epistaxis (treatment-related AE) (22 mg/m^2 n = 4, grades 3–4) | Fatigue (treatment-related AE) (22 mg/m^2 n = 4, grades 3–4) | Headache (treatment-related AE) (22 mg/m^2 n = 4, grades 3–4) | Hypercholesterolemia (treatment-related AE) (22 mg/m^2 n = 4, grades 3–4) | Hyperglycemia (treatment-related AE) (22 mg/m^2 n = 4, grades 3–4) | Hypertriglyceridemia (treatment-related AE) (22 mg/m^2 n = 4, grades 3–4) | Hypocalcemia (treatment-related AE) (22 mg/m^2 n = 4, grades 3–4) | Hypokalemia (treatment-related AE) (22 mg/m^2 n = 4, grades 3–4) | Increased AST (treatment-related AE) (22 mg/m^2 n = 4, grades 3–4) | Increased alkaline phosphatase (treatment-related AE) (22 mg/m^2 n = 4, grades 3–4) | Increased bilirubin (treatment-related AE) (22 mg/m^2 n = 4, grades 3–4) | Increased γ-glutamyltransferase (treatment-related AE) (22 mg/m^2 n = 4, grades 3–4) | Lymphopenia (treatment-related AE) (22 mg/m^2 n = 4, grades 3–4) | Nausea (treatment-related AE) (22 mg/m^2 n = 4, grades 3–4) | Neutropenia (treatment-related AE) (22 mg/m^2 n = 4, grades 3–4) | Photophobia (treatment-related AE) (22 mg/m^2 n = 4, grades 3–4) | Rash (treatment-related AE) (22 mg/m^2 n = 4, grades 3–4) | Stomatitis (treatment-related AE) (22 mg/m^2 n = 4, grades 3–4) | Thrombocytopenia (treatment-related AE) (22 mg/m^2 n = 4, grades 3–4) | Vomiting (treatment-related AE) (22 mg/m^2 n = 4, grades 3–4) | Leukopenia (treatment-related AE) (22 mg/m^2 n = 4, grades 3–4) | Vomiting (treatment-related AE) (28 mg/m^2 n = 3, any grade) | Anemia (treatment-related AE) (28 mg/m^2 n = 3, grades 3–4) | Decreased appetite (treatment-related AE) (28 mg/m^2 n = 3, grades 3–4) | Decreased weight (treatment-related AE) (28 mg/m^2 n = 3, grades 3–4) | Diarrhea (treatment-related AE) (28 mg/m^2 n = 3, grades 3–4) | Dry mouth (treatment-related AE) (28 mg/m^2 n = 3, grades 3–4) | Dysgeusia (treatment-related AE) (28 mg/m^2 n = 3, grades 3–4) | Epistaxis (treatment-related AE) (28 mg/m^2 n = 3, grades 3–4) | Fatigue (treatment-related AE) (28 mg/m^2 n = 3, grades 3–4) | Headache (treatment-related AE) (28 mg/m^2 n = 3, grades 3–4) | Hyperglycemia (treatment-related AE) (28 mg/m^2 n = 3, grades 3–4) | Hypertriglyceridemia (treatment-related AE) (28 mg/m^2 n = 3, grades 3–4) | Hypocalcemia (treatment-related AE) (28 mg/m^2 n = 3, grades 3–4) | Hypokalemia (treatment-related AE) (28 mg/m^2 n = 3, grades 3–4) | Hypophosphatemia (treatment-related AE) (28 mg/m^2 n = 3, grades 3–4) | Increased AST (treatment-related AE) (28 mg/m^2 n = 3, grades 3–4) | Increased alkaline phosphatase (treatment-related AE) (28 mg/m^2 n = 3, grades 3–4) | Increased bilirubin (treatment-related AE) (28 mg/m^2 n = 3, grades 3–4) | Increased γ-glutamyltransferase (treatment-related AE) (28 mg/m^2 n = 3, grades 3–4) | Lymphopenia (treatment-related AE) (28 mg/m^2 n = 3, grades 3–4) | Nausea (treatment-related AE) (28 mg/m^2 n = 3, grades 3–4) | Neutropenia (treatment-related AE) (28 mg/m^2 n = 3, grades 3–4) | Oral herpes (treatment-related AE) (28 mg/m^2 n = 3, grades 3–4) | Photophobia (treatment-related AE) (28 mg/m^2 n = 3, grades 3–4) | Rash (treatment-related AE) (28 mg/m^2 n = 3, grades 3–4) | Stomatitis (treatment-related AE) (28 mg/m^2 n = 3, grades 3–4) | Vomiting (treatment-related AE) (28 mg/m^2 n = 3, grades 3–4) | Leukopenia (treatment-related AE) (28 mg/m^2 n = 3, grades 3–4) | Anemia (treatment-related AE) (33 mg/m^2 n = 13, grades 3–4) | Decreased appetite (treatment-related AE) (33 mg/m^2 n = 13, grades 3–4) | Decreased weight (treatment-related AE) (33 mg/m^2 n = 13, grades 3–4) | Diarrhea (treatment-related AE) (33 mg/m^2 n = 13, grades 3–4) | Dry mouth (treatment-related AE) (33 mg/m^2 n = 13, grades 3–4) | Dysgeusia (treatment-related AE) (33 mg/m^2 n = 13, grades 3–4) | Epistaxis (treatment-related AE) (33 mg/m^2 n = 13, grades 3–4) | Fatigue (treatment-related AE) (33 mg/m^2 n = 13, grades 3–4) | Headache (treatment-related AE) (33 mg/m^2 n = 13, grades 3–4) | Hypercholesterolemia (treatment-related AE) (33 mg/m^2 n = 13, grades 3–4) | Hyperglycemia (treatment-related AE) (33 mg/m^2 n = 13, grades 3–4) | Hypocalcemia (treatment-related AE) (33 mg/m^2 n = 13, grades 3–4) | Hypokalemia (treatment-related AE) (33 mg/m^2 n = 13, grades 3–4) | Hypophosphatemia (treatment-related AE) (33 mg/m^2 n = 13, grades 3–4)
2 (50) n (%): Stomatitis (treatment-related AE) (22 mg/m^2 n = 4, any grade) | Thrombocytopenia (treatment-related AE) (22 mg/m^2 n = 4, any grade) | Patients with ≥1 treatment-related adverse event (22 mg/m^2 n = 4, grades 3–4)
10 (77) n (%): Stomatitis (treatment-related AE) (33 mg/m^2 n = 13, any grade) | Thrombocytopenia (treatment-related AE) (33 mg/m^2 n = 13, any grade)
1 (33) n (%): Thrombocytopenia (treatment-related AE) (28 mg/m^2 n = 3, any grade) | Hypercholesterolemia (treatment-related AE) (28 mg/m^2 n = 3, grades 3–4) | Increased ALT (treatment-related AE) (28 mg/m^2 n = 3, grades 3–4) | Thrombocytopenia (treatment-related AE) (28 mg/m^2 n = 3, grades 3–4)
1 patients: Patients discontinued due to an adverse event (grade 5 gastric perforation related to underlying disease) (33 mg/m^2 (n = 13), 8%)
1 patient: Patients with serious adverse events related to study treatment (22 mg/m^2, grade 3 oral herpes) | Patients with DLT (grade 3 increased ALT) (33 mg/m^2, 18 patients evaluable for DLTs overall)
1 (8) n (%): Hypertriglyceridemia (treatment-related AE) (33 mg/m^2 n = 13, grades 3–4) | Increased AST (treatment-related AE) (33 mg/m^2 n = 13, grades 3–4)
4 (31) n (%): Leukopenia (treatment-related AE) (33 mg/m^2 n = 13, any grade)
2 (67) n (%): Leukopenia (treatment-related AE) (28 mg/m^2 n = 3, any grade) | Patients with ≥1 treatment-related adverse event (28 mg/m^2 n = 3, grades 3–4)
2 patients: Patients with serious adverse events related to study treatment (33 mg/m^2, grade 2 rectal pain, grade 2 seizure)
